For 5 compounds, inhibition, Degradation activity and IC50 results are on record in patent US11155561B2, “Substituted glutarimides as Btk inhibitors” (SHANGHAI MEIZER PHARMACEUTICALS CO., LTD., priority 2017, dated 2021).

Each structure is given as a SMILES string.

One may read the inhibition as how much of the control response was suppressed. What is called IC50 is the concentration at which inhibition is half-maximal.

Test [1] concerns the target T1, Btk (Homo sapiens, UniProt Q06187). The test can be described thus: Inhibition activity of compounds on Btk by Caliper assay. Type of test: biochemical. Particulars: compound 100 nM, Btk kinase. The procedure:
Example 5 Testing the Inhibition Activity of Compounds on Btk by Caliper Assay
The experimental steps were as follows:
Preparation of 1× kinase reaction buffer (50 mM HEPES, PH 7.5; 0.0015% Brij-35) and kinase reaction termination solution (100 mM HEPES, PH 7.5; 0.0015% Brij-35; 0.2% Coating Reagent; 50 mM EDTA);
Preparation of experimental samples: 100 μL of 5 μM sample solution (dissolved in 100% DMSO) was added to a 96-well plate to obtain a 50× sample solution. As a control, two wells were set containing only 100 μL of 100% DMSO on the same plate. One was served as a control without samples and the other was served as a control without enzymes. 10 μL of sample and 90 μL of 1× kinase reaction buffer were added to a 96-well plate as a transfer plate. The transfer plate was shaken for 10 minutes.
Preparation of the test plate: taking 5 μL each of the prepared samples in the 96-well transfer plate into a 384-well plate.
Kinase reaction: to 5 μL of 5× compound solution (dissolved in DMSO, diluted 10 times with water) was added 10 μL of 2.5× Btk kinase solution (kinase was diluted with 1× kinase reaction buffer), and incubated at room temperature for 10 min, then 10 μL of 2.5× substrate peptide solution (FAM-labeled peptide and ATP were diluted with 1× kinase reaction buffer) was added.
Termination of the kinase reaction: 25 μL of kinase termination solution was added after being reacted at 28° C. for a period of time.
The fluorescence (F) was tested on a Caliper and data was collected.
The inhibition rate of kinase activity was calculated: the percent inhibition rate of kinase activity=(FDMSO control−Fsample)/(FDMSO control−Fnegative control)×100, with DMSO as the solution control, and no kinase as the negative control.

Test [2] concerns DOHH2 cells (human B cell lymphoma cells). The test is described as follows: Inhibition of proliferation of DOHH2 cells by CTG assay. Type of test: cell-based. The following applies: DOHH-2, compound 10 μM, 72 hours. As for the experimental part:
(§1) Example 8 Testing the Inhibitory Effect of Formula Compounds on the Proliferation of DOHH2 Cells (Human B Cell Lymphoma Cells) and SU-DHL-6 (Human B Cell Lymphoma Cells) by CTG Assay
(§2) The […] was used to determine the inhibitory effect of the compounds on the proliferation of DOHH2 cells (available from ATCC) and SU-DHL-6 cells (available from ATCC) in vitro. Cells were cultured and compounds were prepared referring to Example 7. The cell plating density was 1×10^4 cells/well for DOHH2 cells, and 1.5×10^4 cells/well for SU-DHL-6 cells. The culture time after the administration was 72 hours. After that an appropriate amount of CTG reagent was added, the luminescence value was measured, and the inhibition rate was calculated.

The target in test [3] is T1, Btk. The test can be described thus: Btk protein degradation activity by Western blot in RPMI8226 cells. Type of test: cell-based. On the set-up: degradation activity of the compound (10 μM) on Btk protein in RPMI8226 cells; endogenous in cells; host or cells: RPMI8226. Particulars: compound 10 μM, 24 hours. The procedure:
Example 6 Testing the Btk Protein Degradation Activity of Compounds by Western Blot
Cell lines: RPMI8226 Cell line was cultured in RPMI1640 medium containing 10% calf serum in a 37° C., 5% CO2, and saturated humidity incubator.
DMSO control group and compound intervention group (10 μM) were set. Cells was collected after the treatment for 24 hours, then 100 μL of pre-chilled cell lysate was added and cells were lysed on ice for 30 minutes. Total cell protein was extracted, and protein concentration was determined and quantified by […] (BCA) method. After routine gelatinization, loading, electrophoresis, then transferring to membrane and blocking, rabbit anti-human Btk (1:500) was added, and incubated at 4° C. overnight. The mixture was rinsed and then horseradish peroxidase labeled goat anti-rabbit IgG (1:5000) was added. After the rinsing it was developed by the ECL developing solution, the Bio-Rad gel imaging system was used for scanning and imaging, and the computer software was used for analysis. […] (GAPDH) was used as an internal control.
Image J software was used to analyze the gray scale of each band to calculate the Btk protein degradation rate of the compound.
On the technique in general: A western blot detects proteins with antibodies after separation by electrophoresis.

Test [4] has as its system SU-DHL-6 (human B cell lymphoma cells). The test is described as follows: Inhibition of proliferation of SU-DHL-6 cells by CTG assay. Type of test: cell-based. The following applies: compound 10 μM, 72 hours. As for the experimental part: as §1, §2
The subject of test [5] is RPMI 8226 cells (human multiple myeloma cells). The test is described as follows: Inhibition of proliferation of RPMI 8226 cells by CCK8 assay. In kind it is cell-based. The following applies: 48 hours. The procedure: Example 7 Testing the Inhibitory Effect of Formula Compounds on the Proliferation of RPMI 8226 Cells (Human Multiple Myeloma Cells) by CCK8 Assay
The inhibitory effect of the compound on the proliferation of RPMI 8226 cells (commercially available from ATCC) was determined by the CCK8 assay in vitro. The experimental steps were as follows:
RPMI 8226 cells were cultured in 1640 medium containing 10% calf serum, seeded in a 96-well plate with 2×10^5 cells/well, and placed in a 37° C., 5% CO2 incubator. The compound was dissolved in dimethyl sulfoxide (DMSO) to obtain a solution with a concentration of 10 mM, and then diluted to the desired concentration with a phosphate buffer solution. The solution was added to the above 96-well plate. Each concentration has 2 wells with 10 μl per well. Each concentration was tested in duplicate. As a control, DMSO was diluted in the corresponding gradient and then added to the plate.
After the 96-well plate was cultured in a 37° C., 5% CO2 cell incubator for 48 hours, 10 μl of CCK8 solution was added to each well, and it was cultured in the incubator for another 1 to 4 hours. The light absorption value at 465 nm was measured.
The relative survival rate of the cells after the compound treatment was calculated based on the light absorption value.
The IC50 of the compound against RPMI 8226 cells was calculated by software.
Background: Tetrazolium dyes change colour on reduction, which living cells bring about.

T1 sequence (Q06187 whole entry): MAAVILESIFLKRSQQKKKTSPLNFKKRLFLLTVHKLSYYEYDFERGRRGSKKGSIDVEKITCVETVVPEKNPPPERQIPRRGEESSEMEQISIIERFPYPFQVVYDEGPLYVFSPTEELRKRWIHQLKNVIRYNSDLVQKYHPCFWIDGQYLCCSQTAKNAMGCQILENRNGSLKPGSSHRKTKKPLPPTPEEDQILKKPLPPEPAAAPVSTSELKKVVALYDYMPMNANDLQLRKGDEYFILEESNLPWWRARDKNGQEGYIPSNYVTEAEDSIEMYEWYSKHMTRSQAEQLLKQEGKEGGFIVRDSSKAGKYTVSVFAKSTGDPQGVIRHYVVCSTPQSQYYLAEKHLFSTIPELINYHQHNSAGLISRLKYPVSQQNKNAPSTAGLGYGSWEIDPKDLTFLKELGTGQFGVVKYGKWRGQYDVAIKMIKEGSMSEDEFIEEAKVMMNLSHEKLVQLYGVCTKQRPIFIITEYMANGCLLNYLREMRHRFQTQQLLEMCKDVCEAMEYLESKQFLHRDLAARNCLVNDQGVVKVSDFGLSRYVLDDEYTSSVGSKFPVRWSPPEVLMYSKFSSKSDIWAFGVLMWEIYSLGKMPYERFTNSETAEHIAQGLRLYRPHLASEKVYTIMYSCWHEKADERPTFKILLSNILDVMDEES

`Nc1ncnc2c1c(-c1ccc(Oc3ccccc3)cc1)nn2C1CCCN(CCOCCOCCOCCOc2cccc3c2C(=O)N(C2CCC(=O)NC2=O)C3=O)C1` (centres unmarked) [Compound 16] gave an inhibition at 0.1 µM against Btk [1] of 95%. Further, the values for the inhibition at 10 µM in test [2] and in test [4] were 84% and 71%, respectively. The Degradation activity entry at Btk [3] was “++++ (“++++” means the degradation rate is greater than 90%)”.
Compound `Nc1ncnc2c1c(-c1ccc(Oc3ccccc3)cc1)nn2C1CCCN(CCOCCOCCNc2cccc3c2C(=O)N(C2CCC(=O)NC2=O)C3=O)C1` (centres unmarked) [Compound 14] came in with an inhibition at 0.1 µM on Btk [1] of 99%. For the same compound, the inhibition at 10 µM in test [2] is 98%; in test [4], 87%. Besides, the Degradation activity result at Btk [3] is recorded as “++++ (“++++” means the degradation rate is greater than 90%)”. Besides, inhibition in test [5] was half-maximal at 6 µM (IC50).
On the same counts, the results for `Nc1ncnc2c1c(-c1ccc(Oc3ccccc3)cc1)nn2C1CCCN(CCOCCOCCOc2cccc3c2C(=O)N(C2CCC(=O)NC2=O)C3=O)C1` (centres unmarked) [Compound 7] are 99%, 63%, 53%, “++++ (“++++” means the degradation rate is greater than 90%)” and 83 µM.
On Btk [1], `Nc1ncnc2c1c(-c1ccc(Oc3ccccc3)cc1)nn2C1CCCN(CCOCCOCCOCCNc2cccc3c2C(=O)N(C2CCC(=O)NC2=O)C3=O)C1` (centres unmarked) [Compound 15] gave an inhibition at 0.1 µM of 98%. Besides, the values for the inhibition at 10 µM in test [2] and in test [4] were 99% and 94%, respectively. For the same compound, at Btk [3], the Degradation activity entry is “++++ (“++++” means the degradation rate is greater than 90%)”.
Compound `Nc1ncnc2c1c(-c1ccc(Oc3ccccc3)cc1)nn2[C@@H]1CCCN(CCCCCC(=O)Nc2cccc3c2C(=O)N(C2CCC(=O)NC2=O)C3=O)C1` (some centres unmarked) [Compound 3] registered an inhibition at 0.1 µM at Btk [1] of 92%. The inhibition at 10 µM in test [2] was found to be 87%; in test [4], 60%. The Degradation activity result at Btk [3] is reported as “++++ (“++++” means the degradation rate is greater than 90%)”. This compound registered an IC50 in test [5] of 34 µM.
